# Molecular target: PRS (prolyl-tRNA synthetase) protein, PRS portion of EPRS (Homo sapiens (Human), UniProt P07814)
# Experiment: PRS enzyme activity inhibition experiment ([3H]proline, liquid scintillation)
# Type: biochemical
# Conditions: purified PRS protein, 37° C. for 5 to 10 minutes
# How it was run: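 Values are % inhibition or IC50 ranges (A ≤100 nM, B 100–500 nM, C ≥500 nM) from [3H]proline incorporation measured by liquid scintillation. PRS portion of human EPRS, reacted 5–10 min at 37 °C in pH 7.4 phosphate buffer containing 5 mM ATP and tRNA, compound at 1 μM.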
# Sequence of PRS (prolyl-tRNA synthetase) protein, PRS portion of EPRS (P07814 1007-1512): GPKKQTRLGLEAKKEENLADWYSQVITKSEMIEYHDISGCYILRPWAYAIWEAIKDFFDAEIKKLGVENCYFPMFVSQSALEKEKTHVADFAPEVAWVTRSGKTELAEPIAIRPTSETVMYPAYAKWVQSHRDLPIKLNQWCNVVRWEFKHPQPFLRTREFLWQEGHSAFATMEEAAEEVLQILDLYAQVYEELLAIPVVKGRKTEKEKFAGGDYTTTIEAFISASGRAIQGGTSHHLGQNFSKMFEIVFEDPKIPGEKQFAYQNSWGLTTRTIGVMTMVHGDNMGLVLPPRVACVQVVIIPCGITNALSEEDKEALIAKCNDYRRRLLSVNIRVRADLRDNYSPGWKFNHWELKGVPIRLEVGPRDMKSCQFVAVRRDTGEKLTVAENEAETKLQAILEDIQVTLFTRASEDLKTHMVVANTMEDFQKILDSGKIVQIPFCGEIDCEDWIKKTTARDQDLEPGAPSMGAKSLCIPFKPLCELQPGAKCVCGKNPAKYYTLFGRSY
row,Structure (SMILES),IC50 [nM]
1,"O[C@H]1CCCN[C@@H]1CCCn1cnc2cc(Cl)cc(-c3ccon3)c21 [Example 90, (2R,3S)-2-(3-(5-chloro-7-(Isoxazol-3-yl)-1H-benzo[d]imidazol-1-yl)propyl)piperidin-3-ol]",100 to 500
2,"O[C@H]1CCCN[C@@H]1CCCn1cnc2cc(Cl)cc(-c3ccsc3)c21 [Example 91, (2R,3S)-2-(3-(5-chloro-7-(thiophen-3-yl)-1H-benzo[d]imidazol-1-yl)propyl)piperidin-3-ol]",≤ 100
3,"O[C@H]1CCCN[C@@H]1CCCn1cnc2cc(Cl)cc(-c3cccnc3)c21 [Example 86, (2R,3S)-2-(3-(5-chloro-7-(pyridin-3-yl)-1H-benzo[d]imidazol-1-yl)propyl)piperidin-3-ol]",100 to 500
4,"Cc1cscc1-c1cc(Cl)cc2ncn(CCC[C@H]3NCCC[C@@H]3O)c12 [Example 109, (2R,3S)-2-(3-(5-chloro-7-(4-methylthiophen-3-yl)-1H-benzo[d]imidazol-1-yl)propyl)piperidin-3-ol]",≤ 100
5,"COC(=O)c1cc(Br)c2c(c1)ncn2CCC[C@H]1NCCC[C@@H]1O [Example 68, methyl 7-bromo-1-(3-((2R,3S)-3-hydroxypiperidin-2-yl)propyl)-1H-benzo[d]imidazole-5-carboxylate]",≥ 500
6,"O[C@H]1CCCN[C@@H]1CCCn1cnc2cccc(-c3cn[nH]c3)c21 [Example 31, (2R,3S)-2-(3-(7-(1H-pyrazol-4-yl)-1H-benzo[d]imidazol-1-yl)propyl)piperidin-3-ol]",100 to 500
7,"Cc1cc(Cl)cc2c1ncn2CCC[C@H]1NCCC[C@@H]1O [Example 61, (2R,3S)-2-(3-(6-chloro-4-methyl-1H-benzo[d]imidazol-1-yl)propyl)piperidin-3-ol]",≤ 100
8,"O[C@H]1CCCN[C@@H]1CCCn1cnc2c(F)cc(F)cc21 [Example 57, (2R,3S)-2-(3-(4,6-difluoro-1H-benzo[d]imidazol-1-yl)propyl)piperidin-3-ol]",≥ 500
9,"O[C@H]1CCCN[C@@H]1CCCn1cnc2ccc(Cl)c(Cl)c21 [Example 56, (2R,3S)-2-(3-(6,7-dichloro-1H-benzo[d]imidazol-1-yl)propyl)piperidin-3-ol]",100 to 500
10,"COC(=O)c1cn(C/C=C/[C@H]2NCCC[C@@H]2O)c2cc(Br)ccc12 [Example 214, methyl 6-bromo-1-((E)-3-((2R,3S)-3-hydroxypiperidin-2-yl)allyl)-1H-indole-3-carboxylate]",100 to 500

# The remaining lines, values ahead:
row,IC50 [nM],Structure (SMILES)
1,≥ 500,"O[C@H]1CCCN[C@@H]1/C=C/Cn1ncc2cc(Cl)cnc21 [Example 200, (2R,3S)-2-((E)-3-(5-chloro-1H-pyrazolo[3,4-b]pyridin-1-yl)prop-1-en-1-yl)piperidin-3-ol]"
2,≥ 500,"Oc1nc2cc(Cl)c(Cl)cc2n1CCC[C@H]1NCCC[C@@H]1O [Example 144, 5,6-dichloro-1-(3-((2R,3S)-3-hydroxypiperidin-2-yl)propyl)-1H-benzo[d]imidazol-2-ol]"
3,≥ 500,"O[C@H]1CCCN[C@@H]1/C=C/Cn1ccc2cccnc21 [Example 196, (2R,3S)-2-((E)-3-(1H-pyrrolo[2,3-b]pyridin-1-yl)prop-1-en-1-yl)piperidin-3-ol]"
4,≥ 500,"CCN(CC)c1ncnc2c1ncn2CCC[C@H]1NCCC[C@@H]1O [Example 138, (2R,3S)-2-(3-(6-(diethylamino)-9H-purin-9-yl)propyl)piperidin-3-ol]"
5,≥ 500,"OCc1nc2cc(Cl)c(Cl)cc2n1C/C(F)=C/[C@H]1NCCC[C@@H]1O [Example 220, (2R,3S)-2-((Z)-3-(5,6-dichloro-2-(hydroxymethyl)-1H-benzo[d]imidazol-1-yl)-2-fluoroprop-1-en-1-yl)piperidin-3-ol]"
6,100 to 500,"O[C@H]1CCCN[C@@H]1/C=C/Cn1cnc2ccc(-c3cccc(Cl)c3)cc21 [Example 190, (2R,3S)-2-((E)-3-(6-(3-chlorophenyl)-1H-benzo[d]imidazol-1-yl)prop-1-en-1-yl)piperidin-3-ol]"
7,≥ 500,"O[C@H]1CCCN[C@@H]1CCCn1cnc2ncc(Br)cc21 [Example 120, (2R,3S)-2-(3-(6-bromo-1H-imidazo[4,5-b]pyridin-1-yl)propyl)piperidin-3-ol]"

# Reference: patent US10981917B2, “Heterocyclic compound, its preparation method, and pharmaceutical composition comprising the same” (Daewoong Pharmaceutical Co., Ltd., priority 2017, dated 2021)
